This note sets out measurements from patent US20030134783A1, “Use of cyclic heptapeptides for the inhibition of biofilm formation” (priority 2001, published 2003).

For series [1], the system named is S. enterica pre-formed biofilm. Nature of the series: Dispersal of pre-formed biofilm in PVC wells. Particulars: for effect on pre-formed biofilms: detergent-like compounds mixed into cultures in PVC wells. Type of series: cell-based, Salmonella enterica. How it is done:
(§1) Studies were done to test biofilm formation in microtitre wells. To quantify biofilm formation, typically, 10 μl of an overnight culture were used to inoculate PVC microtitre wells containing 90 μl of LB without NaCl, but with 2% glucose. The covered microtitre dish was sealed with parafilm during incubation at 30° C. Cultures were removed to determine the OD630, and the wells were rinsed with distilled water. After drying at room temperature for 15 minutes, 200 μl of crystal violet (1%) was added to the wells for 20 minutes The stained biofilms were rinsed several times with distilled water, allowed to dry at room temperature for 15 minutes, and extracted with 2×200 μl 95% ethanol. The OD550 was estimated using a Beckman DU-640B spectrophotometer, after adjusting the volume to 1 mL with distilled water.
Surfactin was added to PVC wells after the culture had reached an OD630 of approximately 0.15-0.2. When this OD was reached, the surfactants were gently mixed into the cultures in microtitre wells. Samples were harvested and either growth as determined by OD630 or biofilm levels as measured by OD550 of CV-stained material were analyzed. The OD550 of the surfactin-treated sample decreased at a faster rate than that of the untreated sample for the initial sloughing phase of BF, resulting in an approximately 85% decrease in total biofilm by the end of the experiment at 22 hours.
The detergents tested were SDS (ionic surfactant), Tween-80 ([…] surfactant), rhamnolipid (another lipopeptide surfactant) and serrawettin. Surfactin concentration in this and the rest of the studies was maintained at 100 μg in order to compare its activity to that of the biosurfactant rhamnolipid, which affected BF when it was used at higher concentrations.

Series [2] deals with wild-type S. enterica. Nature of the series: Biofilm formation in PVC microtitre wells, crystal violet staining. It is filed as cell-based, Salmonella enterica. How it is done:
The ability of lipopolysaccharide (LPS) mutants to form biofilms was tested in PVC microtitre plates. The biofilm assay used monitors the ability of S. enterica to attach to the wells of the microtitre dishes. The biofilm formed at the interface between the air and liquid medium, and was quantitated by staining with crystal violet (CV) as described in the examples given below.
as §1
The swarming defect of the LPS mutants could be rescued by the addition of the surfactin isolated from Bacillus subtilis. […]

In series [3] the test system is LPS mutants of S. enterica. Nature of the series: Rescue of swarming defect of LPS mutants. It is filed as cell-based, Salmonella enterica. Particulars: addition of surfactin isolated from Bacillus subtilis.
Series [4] deals with Salmonella typhimurium. Nature of the series: Biofilm formation in catheters, crystal violet staining. Type of series: cell-based. Set-up: key to Biofilm Formation: “++++” = efficient biofilm formation; “−” = no biofilm formation. Particulars: for inhibition of BF by S. enterica relative to surfactin: catheters, Tween 80 at 0.25%, 10 to 100 million bacterial cells. How it is done:
(§2) To visualize biofilm formation in catheters, 10 μl of an overnight culture of S. enterica was inoculated into 500 μl of medium and injected into clear vinyl urethral catheters overnight at 30° C., with and without 100 μg surfactin. Biofilms were analyzed by staining with CV. The catheters were capped at both ends and incubated at 30° C. overnight. Media and growth conditions were as described above for PVC wells. Cultures were removed to determine the OD630, and the catheters were rinsed with distilled water. After drying at room temperature for 15 minutes, 700 μl of crystal violet (1%) was added to the catheters for 20 minutes. The stained biofilms were rinsed several times with distilled water, and allowed to dry at room temperature for 15 minutes before examination.
S. enterica was grown in clear vinyl urethral catheters. The biofilm formed by S. enterica was dispersed all along the growth surface. […] It is important to note that the same results were obtained when venous catheters made of polyurethane were tested. The data presented here relate mainly to the urethral catheters.
When the device coated is to be inserted in the body cavity, some form of surface sterilization may be necessary. Also, endogenous fluids should not wash off the surfactin coating. Studies were conducted to determine these properties of the coating (Table 1). Urethral catheters were coated with surfactin (by passing through 500 μl of a solution of 1.0 μg/μl surfactin), and 10 mL of sterile saline solution were passed through the coated catheter.
After coating urethral cathethers with surfactin, the coated catheters were subjected to treatment in an autoclave (121° C., 15 psi) for 30 minutes or baking in a 50° C. oven for 6 hours. […] Surfactin, apparently adhered to the catheters, largely inhibiting biofilm formation.
The biofilm-inhibiting properties of surfactin are not altered after storing surfactin-baked catheters (baked for one hour at 60° C.) for 5 days at room temperature (Table 2). Further, baked on surfactin is not washed off by sterile saline dripping through the catheter at 0.3 mL/minutes for 24 hours. The BF-inhibiting properties of surfactin are stable over 50 days of storage at either room temperature or at 4° C. Thus, medical devices coated with surfactin, or a substance with surfactin-like properties, may be partially sterilized by baking at 60° C., and the sterility would be maintained over a long period of time.

In series [5] the test system is Escherichia coli. The series is described as follows: Biofilm formation in urethral catheters, crystal violet staining. Type of series: cell-based. How it is done:
as §2
(§3) The most common causes of central urinary catheter and central venous catheter infections (caused by adherent bacteria), include Eschericila coli, Proteus mirabilis, and Pseudomonas aeruginosa, Klebseiella pneumoniae, Staphylococcus epidermis. The effect of surfactin on BF by some of these medically relevant organisms was tested by growth of the organism in urethral catheters (Table 3). Escherichia coli and Proteus mirabilis formed a biofilm mainly at the air liquid interface, while the biofilm formed by P. aeruginosa, like that formed by S. enterica, was dispersed all along the catheter.

Series [6] relates to Proteus mirabilis. The series is described as above. Type of series: cell-based. How it is done:
as §2, §3

Series [7] deals with Staphylococcus epidermis. Described as above. It is filed as cell-based. The settings on record: Surfactin-coated catheters. How it is done:
as §2, §3

Numbered stars: 1 amine (or outer) side, 2 acyl side, 3 side chain; on linkers, the order of the positions; unused ones are H or OH. Bridge positions count the residues as written; N and C are the ends. Square brackets hold non-standard residues; d marks the D form. Peptide text beside a SMILES is read from it. X1 = CC(C)CCCCCCCCC[C@H](CC(=O)[*:1])O[*:2]

Turning to `CCCCCCCCCCCCOS(=O)(=O)[O-].[Na+]` [SDS], the “effect on pre-formed biofilms” value in series [1] is “dispersed pre-formed biofilm”.
As for `CC(C)CCCCCCCCC[C@@H]1CC(=O)N[C@@H](CCC(=O)O)C(=O)N[C@@H](CC(C)C)C(=O)N[C@H](CC(C)C)C(=O)N[C@@H](C(C)C)C(=O)N[C@@H](CC(=O)O)C(=O)N[C@H](CC(C)C)C(=O)N[C@@H](CC(C)C)C(=O)O1` [Surfactin, surfactin] (EL[dL]VD[dL]L; linker N-C via X1), the “amount of surfactin sufficient to completely abolish BF” value in series [2] (PVC wells pre-coated or surfactin in growth medium, overnight at 30° C.) is below 5 µg. Also, the Bacterial growth result in series [2] (all surfactin concentrations tested) is listed as “unaffected”. For the same compound, the “swarming defect of the LPS mutants” value in series [3] is “rescued”. In addition, in series [1] (surfactin 100 μg added at OD630 0.15-0.2, end of experiment at 22 hours), the “decrease in total biofilm (pre-formed)” value is “approximately 85%”. For the same compound, in series [4] (50 days of storage at room temperature or at 4° C.), the “stability of BF-inhibiting properties on storage” value is on record as “stable”. Besides, the “Biofilm formation, optical density reading based on crystal violet staining” value is 0.05 in series [4] (Surfactin-coated catheters); 0.05 in series [4] (surfactin-baked catheters (one hour at 60° C.), 5 days at room T.); 0.06 in series [4] (surfactin-baked catheters, 24 hour saline wash (0.3 mL/minutes)); 0.05 in series [5] (Surfactin-coated catheters); 0.11 in series [6] (Surfactin-coated catheters); 0.40 in series [7]. The “Biofilm Formation” value was “++++” in series [4] (catheter treatment: Surfactin, saline wash (10 mL sterile saline)); “−” in series [4] (catheter treatment: Surfactin, the oven (50° C., 6 hours)); “−” in series [4] (urethral catheter treatment: Surfactin). For the same compound, the “formation of biofilm on the catheters” value in series [4] (clear vinyl urethral catheters, 100 μg surfactin, overnight at 30° C.) is given as “eliminated the formation of biofilm”. Also, the “effect of oven treatment on biofilm inhibition by surfactin” value in series [4] (coated catheters baked in 50° C. oven for 6 hours) is “no effect”. Moreover, in series [4] (oven treatment of surfactin coated catheters), the “resistance of baked surfactin coating to saline washing” value is given as “resistant to saline washing”. The “effectiveness of pre-coating catheters versus surfactin in the growth medium” value in series [4] (surfactin solution run through catheters prior to inoculation) was “just as effective”. Further, the “inhibition of BF and growth” value in series [5] (growth in urethral catheters) and in series [6] (growth in urethral catheters) was “inhibited BF (but not growth)” in each case.
Regarding `CCCCCCCC/C=C\CCCCCCCC(=O)OCCOCC(OCCO)C1OCC(OCCO)C1OCCO` (centres unmarked) [Tween-80, reference compound], the “effect on pre-formed biofilms” value in series [1] was “dispersed pre-formed biofilm”. In addition, the “inhibition of BF by S. enterica relative to surfactin” value in series [4] is given as “as effective as surfactin”.
The like results for rhamnolipid [reference compound] were, in that order, “dispersed pre-formed biofilm” and “only half as effective”.
Consider serrawettin, for which the “effect on pre-formed biofilms” value in series [1] was “dispersed pre-formed biofilm”.
